pEC50: −log10 of the molar value. Read-outs that look alike come from different tables or passages of the source.
Legend:
SARS-CoV-2 [1] = assay: Viral-RNA replication suppression in infected Caco-2 cells (qRT-PCR); conditions: for pEC50: Severe acute respiratory syndrome coronavirus 2, Caco-2, 48 h, read-out: SARS-CoV-2 EC50
JEV = assay: microbe, parasite or virus in culture; format: cell-based; conditions: Japanese encephalitis virus, 72 h; BHK-21 cells, three days, MTT
HCoV-229E [2] = assay: Cell-death suppression effect in coronavirus-infected cells (resazurin); conditions: for pEC50: read-out: HCoV-229E EC50 (50% cell death inhibition concentration)
DENV3 = assay: microbe, parasite or virus in culture; format: cell-based; conditions: Dengue virus, DENV3, 120 h; BHK-21 cells, five days, MTT
ZIKV = assay: microbe, parasite or virus in culture; format: cell-based; conditions: Zika virus, 72 h; BHK-21 cells, three days, MTT
DENV1 = assay: microbe, parasite or virus in culture; format: cell-based; conditions: Dengue virus, DENV1, 120 h; BHK-21 cells, five days, MTT
HCoV-OC43 [3] = assay: Cell-death suppression effect in coronavirus-infected cells (resazurin); conditions: for pEC50: read-out: HCoV-0C43 EC50 (50% cell death inhibition concentration)
DENV4 = assay: microbe, parasite or virus in culture; format: cell-based; conditions: Dengue virus, DENV4, 120 h; BHK-21 cells, five days, MTT
HCoV-229E and HCoV-OC43 = assay: Library screening for suppression of cell death of cells infected by a human coronavirus; format: cell-based
Description: HCoV-229E (ATCC: VR-740) and HCoV-OC43 (ATCC: VR-1558) obtained from the ATCC were used as coronaviruses that routinely infect humans (human coronaviruses: HCoV).
(§1) In the following tests, culture-cell strain MRC5 cells from the lungs of a human fetus or culture-cell strain Caco-2 cells from a human colon carcinoma were infected using the viruses. For both cell types, 2% FBS/MEM was used as a culture medium. The 2% FBS/MEM was prepared by adding 2% FBS (fetal bovine serum; made by Gibco) and L-glutamine (made by Wako) to MEM (Minimum Essential Medium; made by Nissui).
HCoV-229E and HCoV-OC43 were used as the human coronavirus.

Caco-2 cells = conditions: for cytotoxicity by microscopic observation: Caco-2 cells infected with SARS-CoV-2; for concentration at which mild cytotoxicity, not to an extent of cell extinction, was observed: human
WNV = assay: microbe, parasite or virus in culture; format: cell-based; conditions: West Nile virus, 72 h; BHK-21 cells, three days, MTT
HCoV-229E [4] = tested on: HCoV-229E
DENV2 = assay: microbe, parasite or virus in culture; format: cell-based; conditions: Dengue virus, DENV2, 96 h; BHK-21 cells, four days, MTT
[5] = Cytotoxicity CC50 (Table 1); format: cell-based, human; conditions: human, MRC5 cells
Description: as §1
(§2) Moreover, from values of EC50 and CC50, SI (CC50/EC50) was calculated.

MRC5 cells = assay: Cytotoxicity CC50 (Table 1); format: cell-based, human
Description: as §1, §2

YFV [6] = conditions: non-patent literature 5; read-out: antiviral activity (EC50) against YFV; cited from earlier work
HCoV-OC43 [7] = tested on: HCoV-OC43
YFV [8] = assay: microbe, parasite or virus in culture; format: cell-based; conditions: Yellow fever virus, BHK-21, 72 h, read-out: EC50 YFV
SARS-CoV-2 [9] = assay: Time-of-addition test in infected Caco-2 cells (viral RNA, TCID50 titration); format: cell-based; conditions: 1 μM, treatment timing Whole and Post-Entry

| SMILES | pEC50 (SARS-CoV-2 [1]) | pEC50 (JEV) | HCoV-229E SI (CC50/EC50) (HCoV-229E [2]) | pEC50 (HCoV-229E [2]; Human coronavirus 229E, 72 h) | pEC50 (DENV3) | pEC50 (DENV1) | pEC50 (DENV4) | antiviral activity (suppressing cell death of infected cells) in library screening (HCoV-229E and HCoV-OC43; HCoV-229E and HCoV-OC43) | cytotoxicity by microscopic observation (Caco-2 cells) | pEC50 (WNV) | pEC50 (HCoV-OC43 [3]; Betacoronavirus 1, OC43, 72 h) | HCoV-229E SI (CC50/EC50) (HCoV-229E [4]) | pEC50 (DENV2) | antiviral activity (suppressing cell death of infected cells) in library screening (HCoV-229E and HCoV-OC43) | CC50 [5] [µM] | HCoV-0C43 SI (CC50/EC50) (HCoV-OC43 [7]) | concentration at which mild cytotoxicity, not to an extent of cell extinction, was observed (Caco-2 cells) [nM] | other results |
| --- | --- | --- | --- | --- | --- | --- | --- | --- | --- | --- | --- | --- | --- | --- | --- | --- | --- | --- |
| Nc1c2ccn([C@@H]3O[C@H](CO)[C@@H](O)[C@H]3O)c2nc[n+]1[O-] [HUP1077, tubercidin N-oxide] | 5.46 | 5.16 | 6.1 | 5.40 | 5.64 | 5.49 | 5.60 | had antiviral activity | concerns regarding cytotoxicity were low | 4.97 | – | – | – | – | – | – | – | pEC50 (ZIKV): 5.20; HCoV-0C43 SI (CC50/EC50) (HCoV-OC43 [3]): 5.6 |
| N#Cc1cn([C@@H]2O[C@H](CO)[C@@H](O)[C@H]2O)c2ncnc(N)c12 [HUP1109, 5-cyanotubercidin] | 6.70 | – | – | 5.64 | – | – | – | – | strong cytotoxicity | – | < 5.00 | 0.26 | < 4.70 | had antiviral activity | 0.59 | – | – | – |
| N#C[C@@]1(c2ccc3c(N)ncnn23)O[C@H](CO)[C@@H](O)[C@H]1O [GS-441524, reference compound] | – | – | – | – | – | – | – | – | – | – | – | – | – | – | – | – | – | pEC50 (HCoV-229E [2]; cultured three days, resazurin): 5.51; pEC50 (HCoV-OC43 [3]; cultured three days, resazurin): 5.43; CC50 (MRC5 cells): > 50 µM; pEC50 (YFV [6]): 4.96 |
| Nc1ncnc2c1ccn2[C@@H]1O[C@H](CO)[C@@H](O)[C@H]1O [HUP1136, tubercidin] | 7.06 | > 6.89 | – | > 7.11 | > 6.90 | < 4.80 | < 4.80 | – | – | 6.70 | – | >8.5 | – | had antiviral activity | – | 5.9 | ≥ 1110 | pEC50 (YFV [8]): 6.82 |
| Nc1ncnc2c1c(/C=N\O)cn2[C@@H]1O[C@H](CO)[C@@H](O)[C@H]1O [HUP1069, 5-formyltubercidin oxime] | 6.70 | > 6.89 | – | > 7.11 | < 4.80 | < 4.80 | < 4.80 | – | – | > 6.89 | 7.26 | >9.5 | > 6.90 | had antiviral activity | – | 13 | – | – |
| CCC(CC)COC(=O)[C@H](C)N[P@](=O)(OC[C@H]1O[C@@](C#N)(c2ccc3c(N)ncnn23)[C@H](O)[C@@H]1O)Oc1ccccc1 [GS-5734, remdesivir, reference compound] | – | – | – | 7.14 | – | – | – | – | – | – | 6.64 | >694.1 | – | – | – | >221.1 | – | CC50 ([5]; read-out: CC50): > 50 µM |
| Nc1ncnc2c1c([N+](=O)[O-])cn2[C@@H]1O[C@H](CO)[C@@H](O)[C@H]1O [HUP1078, 5-nitrotubercidin] | 7.00 | – | 0.17 | 5.70 | – | – | – | had antiviral activity | – | – | < 5.00 | – | < 4.70 | – | 0.33 | – | ≥ 123 | – |
| Nc1ncnc2c1c(CO)cn2[C@@H]1O[C@H](CO)[C@@H](O)[C@H]1O [HUP1108, 5-hydroxymethyltubercidin] | 6.24 | – | >117 | – | – | – | – | had antiviral activity | concerns regarding cytotoxicity were low | – | 6.46 | – | – | – | > 50 | – | 10000 | concentration range in which virus proliferation was suppressed without cytotoxicity (SARS-CoV-2 [1]; Caco-2 cells): lower than 3.33 μM; HCoV-0C43 SI (CC50/EC50) (HCoV-OC43 [3]): >141; relative viral-RNA amount (SARS-CoV-2 [9]; Caco-2 cells, 24 hours, FIG. 3): reduced; viral titer (TCID50) (SARS-CoV-2 [9]; supernatant titrated on VeroE6/TMPRSS2 cells, FIG. 4): reduced |

Source: US20240131046A1, “ANTI-VIRAL AGENT” (NATIONAL UNIVERSITY CORPORATION HOKKAIDO UNIVERSITY, priority 2021, published 2024)
